# Measured values published in patent publication US20250270200A1, “CTPS1 INHIBITORS AND USES THEREOF” (Nimbus Clotho, Inc., priority 2022, published 2025).
# Structures can show the parent of a compound that is named as a salt.
# Molecular target: T1, human CTPS1 (Homo sapiens, UniProt P17812)
# T1 sequence (P17812 1-591): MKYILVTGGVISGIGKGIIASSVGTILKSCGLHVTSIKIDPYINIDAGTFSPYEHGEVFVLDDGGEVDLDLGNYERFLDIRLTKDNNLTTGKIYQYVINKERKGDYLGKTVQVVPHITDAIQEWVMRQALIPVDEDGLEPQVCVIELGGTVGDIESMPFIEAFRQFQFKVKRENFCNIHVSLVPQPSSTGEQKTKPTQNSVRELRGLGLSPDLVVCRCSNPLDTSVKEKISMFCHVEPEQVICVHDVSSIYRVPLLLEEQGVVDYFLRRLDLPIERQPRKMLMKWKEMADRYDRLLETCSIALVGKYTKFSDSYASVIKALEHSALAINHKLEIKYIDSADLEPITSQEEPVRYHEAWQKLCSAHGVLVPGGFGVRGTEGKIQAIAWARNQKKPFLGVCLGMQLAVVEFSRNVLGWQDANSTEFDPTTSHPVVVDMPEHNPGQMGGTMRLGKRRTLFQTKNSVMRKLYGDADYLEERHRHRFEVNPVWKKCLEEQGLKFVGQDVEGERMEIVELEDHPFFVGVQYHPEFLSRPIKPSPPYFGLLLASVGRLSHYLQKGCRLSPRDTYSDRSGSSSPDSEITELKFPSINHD
# Test: ADP-Glo assay, human CTPS1 enzyme inhibition
# Assay type: biochemical
# Conditions: wild-type human CTPS1, 25 nM enzyme; ADP-Glo; read-out: ADP-Glo_WT_hCTPS1—25 nM_IC50 (IC50)
# Summary of the method: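 Full-length tagged human CTPS1 (25 nM) pre-incubated 10 min at 25° C with compound, then 10 min with ATP (120 μM) and UTP (160 μM); reaction started with L-glutamine (100 μM) and GTP (60 μM), 1% DMSO, in HEPES pH 7.4, 10 mM Mg2+, 5 mM KCl, 2 mM DTT. Run within linear phase at 25° C; ADP measured by ADP-Glo luminescence.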
row,IC50 [nM],Structure (SMILES)
1,5 to 25,"CCOc1cncc(-c2cnc(C(=O)N[C@@H](c3cc(NS(=O)(=O)C4CC4)ccn3)[C@@H]3CCCO3)s2)n1 [I-61, N-((S)-(4-(cyclopropanesulfonamido)pyridin-2-yl)((S)-tetrahydrofuran-2-yl)methyl)-5-(6-ethoxypyrazin-2-yl)thiazole-2-carboxamide]"
2,25 to 50,"CCOc1cncc(-c2cnc(C(=O)N[C@H](CN3CCN(C4CC4)CC3)c3cccc(NS(=O)(=O)C(F)F)c3)s2)n1 (single isomer, unassigned) [I-40]"
3,5 to 25,"O=C(N[C@@H](c1cccc(NS(=O)(=O)C(F)F)c1)C1CCOCC1)c1ncc(-c2cnn3ccc(Cl)cc23)s1 [I-197, (R)-5-(5-chloropyrazolo[1,5-a]pyridin-3-yl)-N-((3-((difluoromethyl)sulfonamido)phenyl)(tetrahydro-2H-pyran-4-yl)methyl)thiazole-2-carboxamide]"
4,5 to 25,"CCOc1cncc(-c2cnc(C(=O)N[C@H](c3cc(NS(=O)(=O)C4CC4)ccn3)C(C)(C)O)s2)n1 [I-276, (R)-N-(1-(4-(cyclopropanesulfonamido)pyridin-2-yl)-2-hydroxy-2-methylpropyl)-5-(6-ethoxypyrazin-2-yl)thiazole-2-carboxamide]"
5,5 to 25,"O=C(N[C@@H](c1cc(NS(=O)(=O)C2CC2)ccn1)[C@@H]1COCCO1)c1ncc(-c2cnn3ccc(Cl)cc23)s1 [I-79, 5-(5-chloropyrazolo[1,5-a]pyridin-3-yl)-N-((S)-(4-(cyclopropanesulfonamido)pyridin-2-yl)((R)-1,4-dioxan-2-yl)methyl)thiazole-2-carboxamide]"
6,> 100,"CCOc1cncc(-c2cnc(C(=O)N(C)[C@H](CN3CCOCC3)c3cc(NS(=O)(=O)C4CC4)ccn3)s2)n1 [I-142, (R)-N-(1-(4-(cyclopropanesulfonamido)pyridin-2-yl)-2-morpholinoethyl)-5-(6-ethoxypyrazin-2-yl)-N-methylthiazole-2-carboxamide]"
7,5 to 25,"COC[C@H](NC(=O)c1ncc(-c2cnn3ccc(Cl)cc23)s1)c1cc(NS(=O)(=O)C2CC2)ccn1 (single isomer, unassigned) [I-3]"
8,5 to 25,"CN(C)C[C@@H](NC(=O)c1ncc(-c2cnn3ccc(Cl)cc23)s1)c1cc(NS(=O)(=O)C2CC2)ccn1 [I-165, (R)-5-(5-chloropyrazolo[1,5-a]pyridin-3-yl)-N-(1-(4-(cyclopropanesulfonamido)pyridin-2-yl)-2-(dimethylamino)ethyl)thiazole-2-carboxamide, formic acid salt]"
9,25 to 50,"CCOc1cncc(-c2cnc(C(=O)N[C@@H](C[C@@H]3COCCN3C)c3cccc(NS(=O)(=O)C(F)F)c3)s2)n1 [I-191, N-((S)-1-(3-((difluoromethyl)sulfonamido)phenyl)-2-((R)-4-methylmorpholin-3-yl)ethyl)-5-(6-ethoxypyrazin-2-yl)thiazole-2-carboxamide]"
10,25 to 50,"CCOc1cncc(-c2cnc(C(=O)N[C@@H](CN3C[C@H]4C[C@@H]3CO4)c3cncc(NS(=O)(=O)C4CC4)n3)s2)n1 [I-252, N-((S)-2-((1R,4R)-2-oxa-5-azabicyclo[2.2.1]heptan-5-yl)-1-(6-(cyclopropanesulfonamido)pyrazin-2-yl)ethyl)-5-(6-ethoxypyrazin-2-yl)thiazole-2-carboxamide, formic acid salt]"
11,> 100,"CCOc1cncc(-c2cnc(C(=O)N[C@@H](C[C@@H]3CCCCN3C(C)C)c3cc(NS(=O)(=O)C4CC4)ccn3)s2)n1 (single isomer, unassigned) [I-26]"
12,5 to 25,"CCOc1cncc(-c2cnc(C(=O)N[C@@H](CN3CCCC3=O)c3cc(NS(=O)(=O)C4CC4)ccn3)s2)n1 [I-138, (S)-N-(1-(4-(cyclopropanesulfonamido)pyridin-2-yl)-2-(2-oxopyrrolidin-1-yl)ethyl)-5-(6-ethoxypyrazin-2-yl)thiazole-2-carboxamide]"
13,5 to 25,"CCOc1cncc(-c2cnc(C(=O)N[C@H](c3cc(NS(=O)(=O)C4CC4)ccn3)[C@@H](C)CN3CCCCC3)s2)n1 (stereo in doubt) [I-54, N-((1S,2S)-1-(4-(cyclopropanesulfonamido)pyridin-2-yl)-2-methyl-3-(piperidin-1-yl)propyl)-5-(6-ethoxypyrazin-2-yl)thiazole-2-carboxamide]"
14,5 to 25,"O=C(N[C@H](c1ccnc(NS(=O)(=O)C2CC2)n1)[C@@H]1CCOC1)c1ncc(-c2cnn3ccc(Cl)cc23)s1 [I-261, 5-(5-chloropyrazolo[1,5-a]pyridin-3-yl)-N-((S)-(2-(cyclopropanesulfonamido)pyrimidin-4-yl)((S)-tetrahydrofuran-3-yl)methyl)thiazole-2-carboxamide]"
15,5 to 25,"CCOc1cncc(-c2cnc(C(=O)N[C@H](c3cccc(NS(=O)(=O)C(F)F)c3)[C@@H]3CCOC3)s2)n1 [I-188, N-((S)-(3-((difluoromethyl)sulfonamido)phenyl)((S)-tetrahydrofuran-3-yl)methyl)-5-(6-ethoxypyrazin-2-yl)thiazole-2-carboxamide]"
16,≤ 5,"CCOc1cncc(-c2cnc(C(=O)N[C@H](c3cc(NS(=O)(=O)C4CC4)ccn3)[C@@H]3C[C@@H]4CC[C@H]3O4)s2)n1 [I-82, N-((S)-((1R,2S,4S)-7-oxabicyclo[2.2.1]heptan-2-yl)(4-(cyclopropanesulfonamido)pyridin-2-yl)methyl)-5-(6-ethoxypyrazin-2-yl)thiazole-2-carboxamide]"

# Continued, molecule first:
row,Structure (SMILES),IC50 [nM]
1,"C[C@@H](O)[C@@H](NC(=O)c1ncc(-c2cnn3ccc(Cl)cc23)s1)c1cc(NS(=O)(=O)C2CC2)ccn1 [I-274, 5-(5-chloropyrazolo[1,5-a]pyridin-3-yl)-N-((1S,2R)-1-(4-(cyclopropanesulfonamido)pyridin-2-yl)-2-hydroxypropyl)thiazole-2-carboxamide]",5 to 25
2,"CCOc1cncc(-c2cnc(C(=O)N[C@@H](C[C@H]3COCCN3C)c3cccc(NS(=O)(=O)C(F)F)c3)s2)n1 [I-192, N-((S)-1-(3-((difluoromethyl)sulfonamido)phenyl)-2-((S)-4-methylmorpholin-3-yl)ethyl)-5-(6-ethoxypyrazin-2-yl)thiazole-2-carboxamide]",5 to 25
3,"CCOc1cncc(-c2cnc(C(=O)N[C@@H](Cn3ccnn3)c3cccc(NS(=O)(=O)C(F)F)c3)s2)n1 [I-214, (R)-N-(1-(3-((difluoromethyl)sulfonamido)phenyl)-2-(1H-1,2,3-triazol-1-yl)ethyl)-5-(6-ethoxypyrazin-2-yl)thiazole-2-carboxamide]",5 to 25
4,"CCOc1cncc(-c2cnc(C(=O)N[C@@H](CO)c3cc(NS(=O)(=O)C4CC4)ccn3)s2)n1 [I-262, (R)-N-(1-(4-(cyclopropanesulfonamido)pyridin-2-yl)-2-hydroxyethyl)-5-(6-ethoxypyrazin-2-yl)thiazole-2-carboxamide]",25 to 50
5,"CCOc1cncc(-c2cnc(C(=O)N[C@H](c3cc(NS(=O)(=O)C4CC4)ccn3)[C@@H](C)OC)s2)n1 [I-45, N-((1R,2R)-1-(4-(cyclopropanesulfonamido)pyridin-2-yl)-2-methoxypropyl)-5-(6-ethoxypyrazin-2-yl)thiazole-2-carboxamide]",5 to 25
6,"CCOc1cncc(-c2cnc(C(=O)N[C@@H](c3cc(NS(=O)(=O)C4CC4)ccn3)[C@H]3CCCN3C)s2)n1 [I-118, N-((R)-(4-(cyclopropanesulfonamido)pyridin-2-yl)((R)-1-methylpyrrolidin-2-yl)methyl)-5-(6-ethoxypyrazin-2-yl)thiazole-2-carboxamide]",5 to 25
7,"CCOc1cncc(-c2cnc(C(=O)N[C@@H](c3cccc(NS(=O)(=O)C(F)F)c3)[C@H](C)O)s2)n1 [I-288, N-((1S,2S)-1-(3-((difluoromethyl)sulfonamido)phenyl)-2-hydroxypropyl)-5-(6-ethoxypyrazin-2-yl)thiazole-2-carboxamide]",5 to 25
8,"CCOc1cncc(-c2cnc(C(=O)NC(c3cc(NS(=O)(=O)C4CC4)ccn3)C3CN(C)CCO3)s2)n1 (single isomer, unassigned) [I-105, N-((4-(cyclopropanesulfonamido)pyridin-2-yl)(4-methylmorpholin-2-yl)methyl)-5-(6-ethoxypyrazin-2-yl)thiazole-2-carboxamide]",5 to 25
9,"CCOc1cncc(-c2cnc(C(=O)N[C@@H](c3cc(NS(=O)(=O)C4CC4)ncn3)C3CCOCC3)s2)n1 (single isomer, unassigned) [I-255]",5 to 25
10,"CCOc1cncc(-c2cnc(C(=O)N[C@@H](c3cc(NS(=O)(=O)C4CC4)ccn3)[C@@H]3CCN(CCF)C3)s2)n1 [I-109, N-((R)-(4-(cyclopropanesulfonamido)pyridin-2-yl)((R)-1-(2-fluoroethyl)pyrrolidin-3-yl)methyl)-5-(6-ethoxypyrazin-2-yl)thiazole-2-carboxamide]",5 to 25
11,"CCOc1cncc(-c2cnc(C(=O)N[C@H](CN3C[C@H]4CC[C@@H]3CO4)c3cc(NS(=O)(=O)C4CC4)ccn3)s2)n1 [I-124, N-((R)-2-((1R,4R)-2-oxa-5-azabicyclo[2.2.2]octan-5-yl)-1-(4-(cyclopropanesulfonamido)pyridin-2-yl)ethyl)-5-(6-ethoxypyrazin-2-yl)thiazole-2-carboxamide]",25 to 50
